{"source": "patent US12617837B2", "about": "“Composition for use in treatment of allergic diseases” (UNIVERSITY OF TSUKUBA, priority 2019, dated 2026)", "key": {"Clec10a-Fc [1]": {"molecular_target": "T1, Clec10a-Fc (Mus musculus, UniProt P49300)", "T1 construct": "cloning the extracellular region of mouse Clec10a into a pME18S expression vector; made in house; host or cells: HEK293T cells", "T1 sequence (P49300 57-304 limits assumed)": "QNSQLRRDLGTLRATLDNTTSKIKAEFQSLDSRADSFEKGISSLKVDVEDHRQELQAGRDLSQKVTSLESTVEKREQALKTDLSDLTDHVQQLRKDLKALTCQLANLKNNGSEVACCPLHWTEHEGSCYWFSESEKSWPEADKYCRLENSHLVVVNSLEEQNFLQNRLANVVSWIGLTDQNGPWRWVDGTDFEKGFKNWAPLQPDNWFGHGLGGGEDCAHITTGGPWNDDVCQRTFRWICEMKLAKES", "assay": "Sugar conjugate (glycan) microarray analysis of Clec10a-Fc (Table 7)", "format": "binding", "conditions": "for Signal value, Clec10a-Fc: glycan microarray probed with Clec10a-Fc; for Signal value, Clec10a-Fc with EDTA: glycan microarray probed with Clec10a-Fc with EDTA", "method": "A sugar conjugate microarray containing 98 sugar conjugates (Table 3) was prepared according to a known method using a non-contact microarray printing robot (MicroSys 4000; Genomic Solutions)."}, "mouse Clec10a": {"molecular_target": "T2, mouse Clec10a (Mus musculus, UniProt P49300)", "T2 construct": "an extracellular and transmembrane portions of Clec10a fused to a cytoplasmic portion of CD3; expressed in transfected cells; host or cells: 2B4-NFAT-GFP reporter cells, pMXs-puro retroviral vector", "T2 sequence (P49300 57-304 limits assumed)": "T1 sequence (P49300 57-304 limits assumed)", "assay": "Mouse Clec10a-CD3ζ NFAT-GFP reporter cell assay", "format": "cell-based", "conditions": "for GFP expression in mouse Clec10a reporter cells: stimulation with coated plates, 18 hours, flow cytometry", "method": "(§1) The intracellular region of human CD3ζ was obtained from a vector provided by LL Lanier (University of California, San Francisco). The extracellular region of mouse or human Clec10a or the extracellular region of human Asgr1 was subcloned into a pMXs-puro retroviral vector. 2B4-NFAT-GFP reporter cells were provided from H. Arase (University of Osaka). 2B4-NFAT-GFP reporter cells stably expressing mouse or human Clec10a were made as described previously. The reporter cells were incubated for 18 hours in the presence or absence of anti-Clec10a mAb, Lewis X (GlycoTech), Lewes Y (GlycoTech), galactose (Sigma-Aldrich), glucose (Sigma-Aldrich) or mannose (Sigma-Aldrich). The reporter cells were also cultured on a galactosidase (R & D Systems, 5704 GH or 5549 GH) or glucosidase (R & D Systems, 8329-GH), or Clec10 ligand-coated plate, or an HDM extract-coated plate treated with size-fractionated Clec10a ligand or untreated. Activation of NFAT-GFP was monitored by flow cytometry.\nTo test whether Clec10a recognized glycosylated proteins contained in HDM, NFAT-GFP reporter cells (Clec10a reporter cells) were made which expressed chimeric fusion proteins inch ling an extracellular and transmembrane portions of Clec10a fused to a cytoplasmic portion of CD3."}, "human IgG1": {"tested_on": "human IgG1", "assay": "Glycan microarray probed with human IgG1 (control of Table 7)", "format": "binding"}, "Clec10a-Fc [2]": {"molecular_target": "T1, Clec10a-Fc", "assay": "ELISA of Clec10a-Fc binding to glycan-coated plates", "conditions": "plates coated with Lewis X or Lewis Y", "text": "A mouse Clec10a chimeric construct (Clec10a-Fc) was made by cloning the extracellular region of mouse Clec10a into a pME18S expression vector containing the Fc region of human IgG1. Clec10a-Fc was transfected into HEK293T cells using Lipofectamine 2000 (Thermo Fisher Scientific) and the medium was then replaced with GIT medium (KOHJIN BIO). Clec10a-Fc was purified from the culture supernatants using protein a agarose (Bio-Rad Laboratories).\nAn ELISA system with Clec10a applied to glycan-coated plates was constructed by a routine method to study the binding of each glycan with Clec10a. In the ELISA system, with the expectation that a multivalent effect is achieved by binding a plurality of glycans to the polymeric scaffold, the glycans were bound to the polymeric scaffold and presented to Clec10a. […]\nA PBS solution containing 1 μg/well, 0.1 μg/well, or 0.01 μg/well of the polymeric scaffold presenting the glycans at the location “Sugar” of the above formula as described above (the modification rate was 20% as per the above formula) was introduced into a 96 well plate, and incubation was performed overnight at room temperature so that the wells were coated with the glycans. […] After 1-hour incubation at room temperature, the unbound Clec10a-Fc was washed, and Clec10a-Fc bound to the plate surface was quantified with peroxidase-labeled anti-Fc antibodies. […]"}, "BMMP": {"tested_on": "BMMP", "assay": "Immunoprecipitation/immunoblot of SHP-1 recruitment to Clec10a in HDM-stimulated BMMP", "format": "cell-based, mouse", "conditions": "BMMP pretreated with Syk inhibitor, HDM extract 100 μg/mL", "method": "To analyze association of Clec10a with Syk or SHP-1, BMMP was pretreated in the presence or absence of […] Syk inhibitor IV (Merck, 574714) at 37° C. for 30 minutes and stimulated with an HDM extract (100 μg/mL) at 37° C. for 0 min, 10 min, or 30 min. BMMP was lysed with a 0.2% digitonin buffer and immunoprecipitated with anti-Clec10a mAb. An immune precipitate was transferred onto a PVDF membrane as described above and immunoblotted using anti-Syk antibodies, anti-SHP-1 antibodies, or anti-Clec10a antibodies, and then detected with HRP-labeled anti-rabbit IgG antibodies or goat IgG antibodies. All proteins were detected using enhanced chemiluminescence (Thermo Fisher Scientific)."}, "[3]": {"tested_on": "skin inflammation against lipopolysaccharides (LPS)", "assay": "LPS-induced skin inflammation, intradermal LPS with polymeric scaffold presenting T antigen", "format": "in vivo, mouse", "conditions": "50 μg LPS and 20 μg T antigen scaffold intradermal daily, Day 5", "method": "It was examined whether one of them, T antigen, could suppress skin inflammation against lipopolysaccharides (LPS). The polymeric scaffolds presenting 50 μg LPS and 20 μg T antigen were intradermally injected in the mouse back daily and the epidermal thickness was observed on Day 5. […] In the Clec10a-knockout mice, the epidermal thickness was equal to or greater than that in the WT."}, "human Asgr1": {"molecular_target": "T3, human Asgr1 (Homo sapiens, UniProt P07306)", "T3 construct": "the extracellular region of human Asgr1 was subcloned into a pMXs-puro retroviral vector; expressed in transfected cells", "T3 sequence (P07306 62-291 limits assumed)": "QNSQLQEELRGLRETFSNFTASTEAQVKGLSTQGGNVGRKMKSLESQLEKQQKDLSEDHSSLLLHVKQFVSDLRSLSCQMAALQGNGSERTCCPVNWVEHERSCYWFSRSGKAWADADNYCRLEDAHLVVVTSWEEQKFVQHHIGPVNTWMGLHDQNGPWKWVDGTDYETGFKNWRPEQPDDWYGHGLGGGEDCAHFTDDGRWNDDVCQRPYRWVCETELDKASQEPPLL", "assay": "Human Asgr1-CD3ζ NFAT-GFP reporter cell assay", "format": "cell-based", "method": "as §1\n(§2) The hemITAM sequence (YxxL) was not found in human Clec10a and could only be found in human Asgr1 (see panel c in FIG. 4). […] Upon confirmation of protein expression, human Asgr1 expressed in MP in the human skin, similarly to Clec10a expression in the mouse skin (see panel e in FIG. 4). […]"}, "human Clec10a": {"molecular_target": "T4, human Clec10a (Homo sapiens, UniProt Q8IUN9)", "T4 construct": "The extracellular region of mouse or human Clec10a or the extracellular region of human Asgr1 was subcloned; expressed in transfected cells; host or cells: 2B4-NFAT-GFP reporter cells, pMXs-puro retroviral vector", "T4 sequence (Q8IUN9 61-316 limits assumed)": "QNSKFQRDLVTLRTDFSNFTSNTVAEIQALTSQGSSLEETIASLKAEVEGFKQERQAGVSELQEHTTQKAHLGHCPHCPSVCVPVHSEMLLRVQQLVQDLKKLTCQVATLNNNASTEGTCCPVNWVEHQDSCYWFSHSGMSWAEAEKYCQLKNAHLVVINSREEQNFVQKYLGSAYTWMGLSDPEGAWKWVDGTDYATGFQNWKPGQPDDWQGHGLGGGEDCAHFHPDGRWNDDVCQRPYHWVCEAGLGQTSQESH", "assay": "Human Clec10a-CD3ζ NFAT-GFP reporter cell assay", "format": "cell-based", "conditions": "addition of sugar, HDM-coated plates", "method": "as §1, §2"}}}
{"molecule": "Galβ 1-3(Fucα 1-4)GlcNAcβ 1-PAA [LeA]", "values": [{"measurement": "Signal value, Clec10a-Fc", "setting": "Clec10a-Fc [1]", "value": 5532}, {"measurement": "Signal value, Clec10a-Fc with EDTA", "setting": "Clec10a-Fc [1]", "value": 0}, {"measurement": "GFP expression in mouse Clec10a reporter cells", "setting": "mouse Clec10a", "value": "activated Clec10a in a dose-dependent manner"}, {"measurement": "Signal value, human IgG1", "setting": "human IgG1", "value": 0}]}
{"molecule": "CC(=O)N[C@@H]1[C@@H](O[C@@H]2O[C@@H](C)[C@@H](O)[C@@H](O)[C@@H]2O)[C@H](O[C@@H]2O[C@H](CO)[C@H](O)[C@H](O)[C@H]2O[C@@H]2O[C@@H](C)[C@@H](O)[C@@H](O)[C@@H]2O)[C@@H](CO)O[C@H]1O", "note": "[Lewis Y, reference compound]", "values": [{"measurement": "Signal value, Clec10a-Fc", "setting": "Clec10a-Fc [1]", "value": 0}, {"measurement": "Signal value, Clec10a-Fc with EDTA", "setting": "Clec10a-Fc [1]", "value": 0}, {"measurement": "GFP expression in mouse Clec10a reporter cells", "setting": "mouse Clec10a", "value": "did not respond"}, {"measurement": "Binding of Clec10a-Fc to coated plates (ELISA)", "setting": "Clec10a-Fc [2]", "value": "not bound"}, {"measurement": "Signal value, human IgG1", "setting": "human IgG1", "value": 0}]}
{"molecule": "Galβ.1-4(Fucα 1-3)GlcNAcβ 1-PAA [LeX]", "values": [{"measurement": "Signal value, Clec10a-Fc", "setting": "Clec10a-Fc [1]", "value": 2535}, {"measurement": "Signal value, Clec10a-Fc with EDTA", "setting": "Clec10a-Fc [1]", "value": 0}, {"measurement": "GFP expression in mouse Clec10a reporter cells", "setting": "mouse Clec10a", "value": "activated Clec10a in a dose-dependent manner"}, {"measurement": "Signal value, human IgG1", "setting": "human IgG1", "value": 0}]}
{"molecule": "COc1ccc(-c2cc3nccn3c(Nc3ncccc3C(N)=O)n2)cc1OC", "note": "[Syk inhibitor IV]", "values": [{"measurement": "Recruitment of HDM-induced SHP-1 to Clec10a", "setting": "BMMP", "value": "suppressed the recruitment of HDM-induced SHP-1 to Clec10a"}]}
{"molecule": "CC(=O)N[C@@H]1[C@@H](O[C@@H]2O[C@@H](C)[C@@H](O)[C@@H](O)[C@@H]2O)[C@H](O[C@@H]2O[C@H](CO)[C@H](O)[C@H](O)[C@H]2O)[C@@H](CO)O[C@H]1O", "note": "[Lewis X, reference compound]", "values": [{"measurement": "GFP expression in mouse Clec10a reporter cells", "setting": "mouse Clec10a", "value": "expressed GFP"}]}
{"molecule": "CC(=O)N[C@H]1C(O)O[C@H](CO)[C@H](O)[C@@H]1O[C@@H]1O[C@H](CO)[C@H](O)[C@H](O)[C@H]1O", "note": "(some centres unmarked) [T antigen, Galβ(1-3)GalNAc]", "values": [{"measurement": "Binding of Clec10a-Fc in glycan microarray", "setting": "Clec10a-Fc [1]; Clec10a-Fc 10 μg/mL", "value": "binds"}, {"measurement": "GFP expression in mouse Clec10a reporter cells", "setting": "mouse Clec10a", "value": "activated Clec10a in a dose-dependent manner"}, {"measurement": "Epidermal thickness", "setting": "[3]; Clec10a knockout mice", "value": "epidermal thickness suppressive effect of the T antigen was not observed"}, {"measurement": "Epidermal thickness", "setting": "[3]; WT mice", "value": "increase in thickness of the skin by LPS was suppressed"}]}
{"molecule": "O=C[C@H](O)[C@@H](O)[C@@H](O)[C@H](O)CO", "note": "[galactose]", "values": [{"measurement": "Inhibition of HDM-induced GFP expression in mouse Clec10a reporter cells", "setting": "mouse Clec10a; pretreatment of the reporter cells, HDM-coated plates", "value": "inhibited GFP expression"}, {"measurement": "Offset of Clec10a ligand-induced activation of human Asgr1 reporter cells", "setting": "human Asgr1; addition of galactose to the system", "value": "offset, in a concentration dependent manner"}, {"measurement": "Inhibition of HDM-induced GFP expression in human Asgr1 reporter cells", "setting": "human Asgr1; addition of sugar, HDM-coated plates", "value": "inhibited the expression of GFP induced by HDM"}, {"measurement": "Inhibition of HDM-induced GFP expression in human Clec10a reporter cells", "setting": "human Clec10a", "value": "only in the Asgr1 reporter cells"}]}
